# Square brackets hold non-standard residues; d marks the D form. Ends that are not written are not given here. Peptide text beside a SMILES is read from it. * marks the point of attachment. Cbz = O=C(OCc1ccccc1)*
# What was measured:
# [1] = Solubility of therapeutic peptides; assay type: physicochemical
# Method: (§1) In this study, the rational design was tested for HD. Several bipartite therapeutic peptides containing 8 consecutive arginines (8R) attached to a stretch of consecutive glutamines (polyQ) were synthesized and their biological activity of decreasing the aggregation propensity of the mHtt protein was investigated. The length of the polyQ of these bipartite peptides was 5 (8R5Q), 10 (8R10Q), 15 (8R15Q) or 20 (8R20Q) (Table 2).
# [2] = Stability of therapeutic peptides determined by HPLC; assay type: physicochemical; details: day 0 to day 28
# Method: FIG. 2. Stability of the therapeutic peptides determined by HPLC. A: diagrams showing the retention time of the tested peptides from day 0 to day 28. B: charts showing the amount of the tested peptides at day 0 and day 28.
# as §1
# [3] = system: 109QmHtt aggregates; assay: TIRF microscopy of mHtt aggregates in Neuro2a cells; assay type: cell-based; details: Neuro2a cells expressing 109QmHtt
# Method: FIG. 3. Diagrams showing the co-localization of tested bipartite peptides with the 109QmHtt aggregates. Panel A: Structure of TAMRA-labeled 8R10Q used in this study. Panel B: Epifluorescence micrographs of Neuro2a cells expressing 109QmHtt treated with TAMRA-8R10Q (8R10Q) at various time points. Note the co-localization of 8R10Q and 109QmHttGFP aggregates (GFP) from 8-24 hours (arrows). Scale bar: 10 μm. Panel C: TIRF micrographs of the Neuro2a expressing 109QmHtt treated with water or peptides as indicated at various time points. Note the decrease in aggregate size in 8R10Q and 8R15Q-treated cells. Panel D: Quantitation of the size of individual aggregates in Neuro2a at 8 hours (left) and 24 hours (right) after peptide treatment. […] Panel E: Quantitation of the number of aggregates in 20 Neuro2a cells at 12 hours (left) and 24 hours (right) after peptide treatment. Both the 8R10Q and 8R15Q increased the number of aggregates. Statistics performed with one way ANOVA. **p<0.01; ***p<0.001.
# To probe into the details of the effect of peptide on the mHtt aggregates, the parameters of the mHtt aggregates were visualized and measured using the Total Internal Reflection Fluorescence (TIRF) microscopy. […] The number of aggregates in 20 cells was also calculated. 8R10Q and 8R15Q increased the number of the aggregates by 4-5 fold (FIG. 3, panel E).
# [4] = system: 109QmHtt; assay: Filter trap assay of aggregated 109QmHtt in Neuro2a cells; assay type: cell-based
# Method: (§2) FIG. 4. Testing the ability of therapeutic peptides to decrease mHtt aggregation in Neuro2a cells overexpressing mHtt. Panel A: Filter trap assays and corresponding quantitation of cells (panel B) treated as indicated at 8 hours (T1), 24 hours (T2), or both (T1+2) after transfection with the 109QmHtt construct. […] Panel C: Western blots and quantitation (panel D) of RIPA-soluble (sol) and -insoluble (ins) fractions of Neuro2a cells overexpressing 25QHtt or 109QmHtt and treated as indicated. […] Panel E: Western blot of the 109QmHtt in cells treated as indicated. Note that MG132 blocked the effect of 8R10Q peptide with respect to decreasing insoluble 109QmHtt. Panel F: Quantitation of ratio of 109QmHtt in cells treated MG132 (+) over DMSO (−) in relationship to peptides. Statistical analysis conducted with one way ANOVA, *<0.05, **<0.01, ***<0.001, ns: not significant.
# Whether the peptides could modulate the aggregation propensity of mHtt was next investigated.
# [5] = system: Mouse N2a neuroblastoma cells
# Method: Cell viability measurement by MTT assays. […] Each bar was generated by a triplicate experiment; the study was repeated 3 times. The statistics were performed with one way ANOVA corrected with Fisher's LSD test. ***: p<0.001; ****p<0.0001; ns, not significant.
# Cell viability assay. The viability of mouse N2a cells incubated with the indicated peptide(s) was measured using the MTT assay.
# Mouse N2a neuroblastoma cells (ATCC) were cultured in Dulbecco's modified Eagle's medium (DMEM) (HyClone, USA) supplemented with 10% fetal bovine serum (FBS; HyClone, USA) in 5% CO2 at 37° C. For the cell viability assay, the cells were harvested, suspended at a density of 350,000 cells/mL in DMEM, and 100 μL of each sample was plated in each well of a 96-well CellBIND polystyrene microplate (Corning, USA). […] Cell viability was determined using the MTT (3-[4,5-dimethylthiazol-2-yl]-2,5-diphenyltetrazolium bromide) toxicity assay. […] Ten microliters of 5 mg/mL of MTT in PBS was added to each well, and then, after incubation for 4 h, the medium was removed and the MTT crystals were dissolved in 100 μL of 90% isopropanol, 0.5% SDS, and 40 mM HCl, and their absorption at 570 nm was measured. Cell viability was calculated by dividing the absorbance of the wells containing peptide samples by that of the wells without any added peptide. […]
# [6] = system: Neuro2a cells expressing 109QmHtt; assay: Retinoic acid-induced neurite outgrowth; assay type: cell-based, mouse; details: 109QmHtt cells; vs water or scrambled control
# Method: FIG. 5. Therapeutic effect of 8R10Q and 8R15Q in 109QmHtt-expressing cells. Panel A: Cell viability assay by MTT in Neuro2a cells expressing 25QHtt (left) or 109QmHtt (right) treated with H2O2 at 50 μM and the indicated peptide. Panel B: Cell growth curve of Neuro2a cells expressing 25QHtt or 109QmHtt treated with indicated peptide. The cells in right subpanel were further treated with H2O2 at 12.5 μM 16 hours after transfection. 109QmHtt cells growth was slower than that of the 25QHtt cells. 8R10Q treatment rescued the slow growth of Neuro2a cells by 109QmHtt with or without H2O2. Panel C: Micrographs of the phase contrast and fluorescent images of retinoic acid-differentiated Neu2a cells expressing GFP-25QHtt or GFP-109QmHtt (GFP) treated with the indicated peptide. Note the neurites of the differentiated cells. Panel D: Quantitation of the percentage of differentiated cells with neurites. Fewer 109QmHtt-expressing cells had neurites vs. 25QHtt-expressing cells. […] The experiments were conducted in triplicate and repeated twice. Statistical analysis was performed with one way ANOVA, *p<0.05; **p<0.01; ***p<0.001, ns: not significant.
# Retinoic acid (RA) induced the differentiation of Neuro2a cells with neurite outgrowth. 109QmHtt decreased the number of cells bearing RA-induced neurites relative to 25QHtt (FIG. 5, panels C and D).
# [7] = system: 109QmHtt; assay: Western blot of RIPA-soluble and -insoluble fractions of Neuro2a lysates; assay type: cell-based; details: all groups
# Method: as §2
# For further characterization, Neuro2a lysates were separated into the RIPA-soluble (sol) and insoluble (ins) fractions ([…]). 8R10Q peptide decreased the level of mHtt in both the soluble and insoluble fractions as compared with water, 8R, or the scrambled (s8R10Q) control (FIG. 4, panel D). […]
Compound,Solubility (DMEM/10% FBS) [1],solubility in water or culture medium [1],average size of the aggregates [3],other results
"H-RRRRRRRRWDQQQQQQQQQQQQQQQQQQQQ-NH2 [Peptide 8R20Q, NH2-(R)8-W-D-(Q)20-CONH2]",aggregated,insoluble,,change in retention time and amount during HPLC analysis [2]: time-dependent decrease in the retention time and amount
"H-RRRRRRRRWDQQQQQQQQQQQQQQQ-NH2 [Peptide 8R15Q, NH2-(R)8-W-D-(Q)15-CONH2]",aggregated,partially soluble,0.2 μm^2,"change in retention time and amount during HPLC analysis [2]: time-dependent decrease in the retention time and amount; aggregated 109QmHtt by filter trap assay ([4]; 20 μM peptide added at 8 hours (T1) or 8 plus 24 hours (T1+T2) after transfection, vs water or 8R): significantly reduced; aggregated 109QmHtt by filter trap assay ([4]; peptide added at 24 hours alone): no obvious effects"
"TAMRA-NH-RQQRRQQDQRQWQRQRQQRR-CONH2 ({TAMRA}-RQQRRQQDQRQWQRQRQQRR-NH2) [TAMRA-s8R10Q, reference compound]",Soluble,,,
CC[C@H](C)[C@H](NC(=O)[C@H](C)NC(=O)CNC(=O)[C@H](CCCCN)NC(=O)[C@H](CC(N)=O)NC(=O)[C@H](CO)NC(=O)CNC(=O)[C@@H](CCCNC(=N)N)NC(=O)[C@@H](CCCNC(=N)N)NC(=O)[C@@H](CCCNC(=N)N)NC(=O)[C@@H](CCCNC(=N)N)NC(=O)[C@@H](CCCNC(=N)N)NC(=O)[C@@H](CCCNC(=N)N)NC(=O)[C@@H](CCCNC(=N)N)NC(=O)[C@H](N)CCCNC(=N)N)C(=O)N[C@H](C(=O)NCC(=O)N[C@@H](CC(C)C)C(=O)N[C@@H](CCSC)C(N)=O)[C@@H](C)CC [^DR8-Aβ(25-35)] (H-[dR][dR][dR][dR][dR][dR][dR][dR]GSNKGAIIGLM-NH2; N-terminus assumed),,,,viability of Neuro2a cells treated with peptide alone [5]: no detectable toxicity
"H-RRRRRRRRWD-NH2 [Peptide 8R, NH2-(R)8-W-D-CONH2, reference compound]",Soluble,,3.3 μm^2,RA-induced neurite outgrowth [6]: rescued the cells from this toxicity to some extent
"TAMRA-NH-(R)8-W-D-CONH2 [TAMRA-8RWD, reference compound]",Soluble,,,
"H-RQQRRQQDQRQWQRQRQQRR-NH2 [s8R10Q, reference compound]",Soluble,,1.7 μm^2,
"H-RRRRRRRRWDQQQQQ-NH2 [Peptide 8R5Q, NH2-(R)8-W-D-(Q)5-CONH2]",Soluble,highly soluble,,
RRRRRRRRGSNKGAIIGLM-NH2 [R8-Aβ(25-35)],,,,viability of Neuro2a cells treated with peptide alone [5]: no detectable toxicity
"CC(C)C[C@@H](C=O)NC(=O)[C@H](CC(C)C)NC(=O)[C@H](CC(C)C)NC(=O)OCc1ccccc1 [MG132, reference compound] (Cbz-Leu-Leu-Leu-aldehyde)",,,,level of mHtt after MG132 treatment [7]: increased

# Reference: patent US12590130B2, “Bipartite molecules and uses thereof in treating diseases associated with abnormal protein aggregates” (ACADEMIA SINICA, priority 2014, dated 2026)
